Assay results published in the NIST ThermoML archive (doi:10.1021/je060271a).
Values joined by “and” are separate entries in the source; they are usually repeats but may differ in a detail not shown here. Equal entries are not always repeated.

Settings: Liquid, Vibrating tube method

CCCCCC(=O)OCC(COC(=O)CCCCC)(COC(=O)CCCCC)COC(=O)CCCCC [pentaerythritol tetrahexanoate]
Settings	mass density
283.15 K, 31960 kPa	1021.6 kg/m3
283.15 K, 31978 kPa	1021.7 kg/m3
283.15 K, 31996 kPa	1021.6 kg/m3
283.15 K, 32019 kPa	1021.5 kg/m3
283.15 K, 32037 kPa	1021.7 kg/m3
283.15 K, 32055 kPa	1021.8 kg/m3
283.15 K, 32077 kPa	1021.7 kg/m3
283.15 K, 32096 kPa	1021.6 kg/m3
283.15 K, 32115 kPa	1021.8 kg/m3
283.15 K, 32133 kPa	1021.7 kg/m3
283.15 K, 32156 kPa	1021.6 kg/m3
283.15 K, 32349 kPa	1021.8 kg/m3
283.15 K, 32369 kPa	1021.8 kg/m3
283.15 K, 32386 kPa	1021.7 kg/m3
283.15 K, 32399 kPa	1021.8 kg/m3
283.15 K, 32420 kPa	1021.7 kg/m3
283.15 K, 32436 kPa	1021.9 kg/m3
283.15 K, 32455 kPa	1022 kg/m3
283.15 K, 32472 kPa	1022 kg/m3
283.15 K, 32488 kPa	1021.9 kg/m3
283.15 K, 32506 kPa	1021.9 kg/m3
283.15 K, 32526 kPa	1021.9 kg/m3
283.15 K, 32543 kPa	1022 kg/m3
283.15 K, 32560 kPa	1021.9 kg/m3
283.15 K, 32575 kPa	1022 kg/m3
283.15 K, 32587 kPa	1021.9 kg/m3
283.15 K, 32601 kPa	1022 kg/m3
283.15 K, 32613 kPa	1021.9 kg/m3
283.15 K, 32626 kPa	1021.9 kg/m3
283.15 K, 32639 kPa	1022 kg/m3
283.15 K, 32654 kPa	1022 kg/m3
283.15 K, 32665 kPa	1022 kg/m3
283.15 K, 32672 kPa	1022 kg/m3
283.15 K, 32680 kPa	1022 kg/m3
283.15 K, 32688 kPa	1022.1 kg/m3
283.15 K, 32694 kPa	1022 kg/m3
283.15 K, 32703 kPa	1022 kg/m3
283.15 K, 32708 kPa	1022.1 kg/m3
283.15 K, 32709 kPa	1022 kg/m3
283.15 K, 32711 kPa	1021.8 kg/m3
283.15 K, 32715 kPa	1022 kg/m3
283.15 K, 32718 kPa	1022 kg/m3
283.15 K, 32720 kPa	1022 kg/m3 and 1022.1 kg/m3
283.15 K, 32723 kPa	1021.9 kg/m3 and 1022 kg/m3
283.15 K, 32725 kPa	1021.9 kg/m3
283.15 K, 32726 kPa	1022 kg/m3
283.15 K, 32853 kPa	1022 kg/m3
283.15 K, 32977 kPa	1022.2 kg/m3
283.15 K, 32981 kPa	1022.1 kg/m3
283.15 K, 32985 kPa	1022.1 kg/m3
283.15 K, 32990 kPa	1022.1 kg/m3
283.15 K, 32992 kPa	1022.2 kg/m3
283.15 K, 32997 kPa	1022.1 kg/m3
283.15 K, 33001 kPa	1022.1 kg/m3
283.15 K, 33005 kPa	1022.2 kg/m3
283.16 K, 90.5 kPa	1004.1 kg/m3
283.16 K, 90.7 kPa	1004.2 kg/m3
283.16 K, 90.8 kPa	1004.2 kg/m3
283.16 K, 90.9 kPa	1004.1 kg/m3 and 1004.3 kg/m3
283.16 K, 91.2 kPa	1004.3 kg/m3 and 1004.2 kg/m3
283.16 K, 91.4 kPa	1004.1 kg/m3 and 1004.2 kg/m3 and 1004 kg/m3
283.16 K, 91.5 kPa	1004.1 kg/m3 and 1004.2 kg/m3
283.16 K, 91.7 kPa	1004.2 kg/m3 and 1004.1 kg/m3
283.16 K, 91.9 kPa	1004.2 kg/m3
283.16 K, 92.1 kPa	1004.3 kg/m3
283.16 K, 92.2 kPa	1004.2 kg/m3 and 1004.1 kg/m3
283.16 K, 92.4 kPa	1004.2 kg/m3
283.16 K, 92.6 kPa	1004.2 kg/m3
283.16 K, 92.8 kPa	1004.1 kg/m3 and 1004.2 kg/m3 and 1004 kg/m3
283.16 K, 93.1 kPa	1004.2 kg/m3 and 1004.1 kg/m3
283.16 K, 93.3 kPa	1004.1 kg/m3 and 1004.2 kg/m3
283.16 K, 93.6 kPa	1004.2 kg/m3
283.16 K, 93.8 kPa	1004.1 kg/m3 and 1004.2 kg/m3
